Laboratory results from US11376264B2, “Use of bromodomain-containing protein 9 antagonists in combination with vitamin D receptor agonists in diabetes treatment” (Salk Institute for Biological Studies, priority 2017, dated 2022).

Legend:
Format in all cases: cell-based, rat
VDR-PCAF interaction = assay: Immunoprecipitation of endogenous PCAF with HA-VDR in INS1 cells; conditions: INS1 cells expressing HA-VDR, 1 hr after treatment
Experimental: Immunoprecipitations were performed as described previously (He et al., 2010, Mol. Cell 38, 428-38). Briefly, cells are lysed using ice-cold lysis buffer (HEPES 20 mM pH8, EDTA 0.2 mM, NaCl 0.3 mM, NP40 0.5%, 15% glycerol) for 15 min, and after centrifuging the supernatant was collected. For HA- or Flag-tagged proteins, immunoprecipitations were performed using HA-magnetic beads (Pierce, P188836), or Flag-magnetic beads (Sigma, M8823) for 1.5 hr at 4° C. For other immunoprecipitations, primary antibodies were incubated with lysates for 2 hr followed by Protein A magnetic beads (Life Technologies, 10001D). After 3 washes with wash buffer (HEPES 10 mM pH8, EDTA 0.2 mM, NaCl 0.3 mM, NP40 0.1%, 15% glycerol), the beads were boiled with NuPage LDS sample buffer and the lysates were stored at −20° C.

[1] = system: VDR association with BAF/PBAF complex components; assay: VDR interactome (MudPIT, Western blot) in INS1 cells expressing HA-tagged VDR; conditions: for VDR interactions of key components of the PBAF complex (PBRM1, ARID2): INS1 cells expressing HA-tagged VDR; for VDR association of proteins common to the BAF and PBAF complexes: e.g. SMARCA1, SMARCA2, SMARCA4
Experimental: Immunoprecipitations were performed as described previously (He et al., 2010, Mol. Cell 38, 428-38). Briefly, cells are lysed using ice-cold lysis buffer (HEPES 20 mM pH8, EDTA 0.2 mM, NaCl 0.3 mM, NP40 0.5%, 15% glycerol) for 15 min, and after centrifuging the supernatant was collected. For HA- or Flag-tagged proteins, immunoprecipitations were performed using HA-magnetic beads (Pierce, P188836), or Flag-magnetic beads (Sigma, M8823) for 1.5 hr at 4° C. For other immunoprecipitations, primary antibodies were incubated with lysates for 2 hr followed by Protein A magnetic beads (Life Technologies, 10001D). After 3 washes with wash buffer (HEPES 10 mM pH8, EDTA 0.2 mM, NaCl 0.3 mM, NP40 0.1%, 15% glycerol), the beads were boiled with NuPage LDS sample buffer and the lysates were stored at -20° C. Samples were precipitated by methanol/chloroform. Dried pellets were dissolved in 8 M urea/100 mM TEAB, pH 8.5. […] Proteins were digested overnight at 37° C. in 2 M urea/100 mM TEAB, pH 8.5, with trypsin (Promega). Digestion was quenched with formic acid, 5% final concentration. The digested samples were analyzed on a Fusion Orbitrap tribrid mass spectrometer (Thermo). The digest was injected directly onto a 30 cm, 75 um ID column packed with BEH 1.7 um C18 resin (Waters). Samples were separated at a flow rate of 200 nl/min on a nLC 1000 (Thermo). […] Column was re-equilibrated with 20 ul of buffer A prior to the injection of sample. Peptides were eluted directly from the tip of the column and nanosprayed directly into the mass spectrometer by application of 2.5 kV voltage at the back of the column. The Orbitrap Fusion was operated in a data-dependent mode. Full MS1 scans were collected in the Orbitrap at […] resolution with a mass range of 400 to 1600 m/z and an AGC target of 5e5. The cycle time was set to 3 sec, and within this 3 sec the most abundant ions per scan were selected for CID MS/MS in the ion trap with an AGC target of 1e4 and minimum intensity of 5000. Maximum fill times were set to 50 ms and 100 ms for MS and MS/MS scans respectively. Quadrupole isolation at 1.6m/z was used, monoisotopic precursor selection was enabled and dynamic exclusion was used with exclusion duration of 5 sec. Protein and peptide identification were done with Integrated Proteomics Pipeline-IP2 (Integrated Proteomics Applications). Tandem mass spectra were extracted from raw files using RawConverter (ref1) and searched with ProLuCID (ref2) against rat UniProt database. The search space included all fully-tryptic and half-tryptic peptide candidates. Carbamidomethylation on cysteine was considered as a static modification. Acetylation (42.010565) was considered as a differential modification on Lysine and the N-terminus. […]

INS1 cells = assay: H3K27Ac ChIP-seq enhancer landscape in IL1β-treated INS1 cells; conditions: 1 hour IL1β
From the text: The experimental procedure for ChIP was as previously described (Barish et al., 2010, Genes Dev 24:2760-5). Briefly, after fixation, nuclei from were isolated, lysed, and sheared with a Diagenode Bioruptor to yield DNA fragment sizes of 200-1,000 bp followed by immunoprecipitation.
The procedure was as previously described (Barish et al., 2010, Genes Dev 24:2760-5). Briefly, short DNA reads were aligned against the mouse mm9 or rat rn4 reference genome using the Illumina CASAVA v1.8.2. Reads were aligned using the Bowtie aligner, allowing up to two mismatches in the read. Only tags that map uniquely to the genome were considered for further analysis. Subsequent peak calling and motif analysis were conducted using HOMER, a software suite for ChIP-seq analysis. The methods for HOMER, described below, have been implemented and are available at http://homer.ucsd.edu. One tag from each unique position was considered to eliminate peaks resulting from clonal amplification of fragments during the ChIP-seq protocol. Peaks were identified by searching for clusters of tags within a sliding 200 bp window, requiring adjacent clusters to be at least 1 kb away from each other. The threshold for the number of tags that determine a valid peak was selected for an FDR <0.001, as empirically determined by repeating the peak finding procedure using randomized tag positions. […]

## C=C1/C(=C\C=C2/CCC[C@]3(C)[C@@H]([C@H](C)/C=C/[C@@H](O)C4CC4)CC[C@@H]23)C[C@@H](O)C[C@@H]1O [Cal, calcipotriol]
VDR-PCAF interaction
  PCAF binding to VDR: increased
[1]
  VDR interactions of key components of the PBAF complex (PBRM1, ARID2): significantly increased
  VDR association of proteins common to the BAF and PBAF complexes: increased
INS1 cells
  reversal of IL1β-induced changes in H3K27 acetylation: partially reverse the impact of IL1β

## CCn1cc(-c2cccc(C(F)(F)F)c2)c2sc(C(=N)NC3CCS(=O)(=O)CC3)cc2c1=O [iBRD9]
VDR-PCAF interaction
  PCAF binding to VDR: increased
[1]
  VDR interactions of key components of the PBAF complex (PBRM1, ARID2): significantly increased
  VDR association of proteins common to the BAF and PBAF complexes: increased
INS1 cells
  reversal of IL1β-induced changes in H3K27 acetylation: partially reverse the impact of IL1β
